According to US20240342158A1, “METHOD OF TREATING AND/OR PREVENTING TYPE 1 DIABETES WITH CEPHARANTHINE” (ALBERT EINSTEIN COLLEGE OF MEDICINE, priority 2021, published 2024):

Assays:
[1] = molecular target: recombinant APS3v-HLA-DR3 (Homo sapiens, UniProt P01903+P01911, A100K/A102G/A103R/F55Y/I96L/K41T/P40S/Q125H/Q178H/Q39Y/R42S/S66N/T106N/W38E/Y61H); assay: ELISA inhibition assay of biotinylated peptide binding to recombinant APS3v-HLA-DR3; conditions: ELISA inhibition assay, final concentration 0.4 mM
recombinant APS3v-HLA-DR3, sequence (P01911 30-227 W38E/Q39Y/P40S/K41T/R42S/F55Y/Y61H/S66N/I96L/A100K/A102G/A103R/T106N/Q125H/Q178H): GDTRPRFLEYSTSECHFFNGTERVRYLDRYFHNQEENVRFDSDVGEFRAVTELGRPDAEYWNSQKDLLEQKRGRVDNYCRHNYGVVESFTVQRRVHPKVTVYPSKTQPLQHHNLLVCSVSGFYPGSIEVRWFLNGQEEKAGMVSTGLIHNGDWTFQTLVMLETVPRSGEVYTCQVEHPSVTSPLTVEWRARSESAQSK
recombinant APS3v-HLA-DR3, sequence (P01903 26-216): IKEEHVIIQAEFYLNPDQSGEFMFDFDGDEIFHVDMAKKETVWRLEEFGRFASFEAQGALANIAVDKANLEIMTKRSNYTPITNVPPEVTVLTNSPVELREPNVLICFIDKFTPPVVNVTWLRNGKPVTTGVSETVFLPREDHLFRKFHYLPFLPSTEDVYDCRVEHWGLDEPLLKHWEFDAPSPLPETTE
Procedure: An in vitro binding assay was performed. […] On the day before the immunoassay was performed, a 96-well DELFIA yellow plate (PerkinElmer Life Science) was coated overnight with 20 μg/ml of L243 antibody [Hybridoma was purchased from ATCC, catalogue number HB-55, and IgG was purified by QED Bioscience (San Diego, CA)] in bicarbonate buffer, pH 9.6 (Sigma-Aldrich). L243 is a monoclonal antibody that specifically recognizes the DRa chain of HLA-DR when it is properly folded and complexed with the b chain. The plate was then washed with DELFIA wash buffer (diluted 1:25 from DELFIA wash concentrate, PerkinElmer) to wash off the excess L243 antibody. Blocking was performed using 2.5% BSA in PBS at room temperature for 1 h. After washing 4 times, 100 μl of the pre-incubated mix (containing recombinant APS3v-HLA-DR3 protein, APO, and small molecules) were added onto the plate and shaken at slow speed for 2 h at room temperature. After washing 4 times, DELFIA Europium-labeled streptavidin (PerkinElmer) diluted in DELFIA assay buffer (PerkinElmer) was added for 30 min and shaken at slow speed at room temperature. After washing for 6 times, DELFIA Enhancement Solution was added for 1 h until the optimal signal was reached. Time-resolved fluorescence was measured using the BMG reader (BMG Labtech, Cary, NC). A virtual screen identified 100 small molecules that were predicted to block the unique APS3v-HLA-DR3 pocket. To produce a manageable selection of compounds for validation we clustered the 100 compounds by their simplified molecular input line entry system (SMILES) similarity into 20 clusters. Of the 20 clusters we selected the top scoring members in each cluster. We have enhanced this list to include a total of 11 compounds that blocked APS3v-HLA-DR3, the key HLA-DR3 pocket that triggers APS3v. We tested the selected 11 small molecules identified by the virtual screen in our in vitro ELISA, to test whether the 11 small molecules can block APO peptide (the strongest known peptide binder to HLA-DR3) binding to recombinant APS3v-HLA-DR3. Of the 4 validated small molecules we selected S53 for further testing because it is the only one that has been used in humans before. […] ELISA was performed as previously described.

[2] = system: splenocytes and draining lymph node cells of immunized NOD-DR3 mice; assay: Small molecule inhibition of cytokine production ex vivo (Milliplex); type: cell-based, humanized NOD-DR3 mice; design: GAD.492-induced IFN-g production: unit not given here; conditions: 1 μM small molecule + GAD.492 20 μg/ml, 48 h; GAD.492 alone 56.3
Procedure: (§1) Cytokine Assays: Milliplex mouse cytokines/chemokine magnetic panel (Catalog no. MCYTOMAG-70K, EMD Millipore Corporation, Billerica, MA) was used to assay the cytokines, as described in the art. Briefly, splenocytes were plated at 2×10^6 cells per well in 500 μl of medium (RPMI/10% FBS). Supernatants from stimulated lymphocytes were collected 48 h after stimulation with peptides and stored in −80° C. until the assay was performed. The 96-well plate supplied in the kit was washed with the wash buffer supplied and the plate was shaken for 10 min at room temperature. Standards and quality controls were added, followed by the samples. The pre-mixed beads (Interferon gamma and IL-2) were sonicated, vortexed and added to the wells. After shaking the plate overnight at 4° C., the plate was washed twice with wash buffer. Detection antibodies were added for 1 h at room temperature, and Streptavidin-Phycoerythrin was added for 30 min at room temperature. The plate was washed twice and sheath fluid was added to resuspend the beads for 5 min before reading in Luminex 200 with xPONENT software (Luminex, Austin, Texas).
Small Molecule Inhibition of Cytokine Production Ex Vivo: Eight NOD-DR3 mice were immunized with the three thyroidal/islet peptides. Upon sacrifice, splenocytes were incubated with 1 μM of small molecules (S5, S9, S15, S53) together with TPO.758 (20 μg/ml), GAD.492 (20 μg/ml) or Tg.1571 (20 μg/ml) respectively to assess the blockade of these peptides' presentation by the tested small molecules. Supernatants from stimulated lymphocytes were collected 48 h after stimulation with peptides and small molecules, and stored in −80° C. until the cytokine assay was performed. […]

[3] = system: splenocytes and draining lymph node cells of immunized NOD-DR3 mice; assay: Interferon gamma response of lymphocytes of co-immunized NOD-DR3 mice to the peptides; type: cell-based, humanized NOD-DR3 mice; conditions: lymphocytes of mice co-immunized with Tg.1571, GAD.492 and TPO.758, stimulated 48 hours
From the text: Induction of T-Cell Response to Islet and Thyroid Autoantigens in Humanized NOD-DR3 Mice as a Model of APS3v: Previously we have identified 4 thyroid and islet peptides that triggered T-cell responses inNOD-DR3mice—Tg.1571,GAD.492, TPO.338 and TPO.758 (12). However, only 3 of these peptides (Tg.1571, GAD.492, and TPO.758) elicited significant B-cell (antibody) responses. Therefore, we concluded that these 3 peptides are the major T-cell epitopes in APS3v and used them to induce a model of APS3v in humanized NOD-DR3mice. To induce the APS3v model, 22 female NOD-DR3 mice 4-6 weeks old were co-immunized subcutaneously with these three peptides: Tg.1571, GAD.492 and TPO.758 (100 μg each peptide), in Complete Freund's Adjuvant (CFA, Sigma-Aldrich). Mice were immunized with peptides on day 0 and boosted on day 7, then sacrificed on day 21. As negative control, humanized NOD-DR3 littermates were immunized with PBS emulsified in CFA.
as §1, with “Texas). […]” for “Texas).”

Row | Compound | inhibition of binding of the 3 peptides (TPO.758, GAD.492, Tg.1571) to the HLA-DR3 pocket [1] | GAD.492-induced IFN-g production [2] | interferon gamma (IFN-g) response to the peptide [3] [pg/mL]
1 | Cc1ccc(-c2nnc(Nc3ccc(C(=O)Nc4ccccc4)cc3)c3ccccc23)cc1S(N)(=O)=O [S5] | significant inhibition of binding for all 3 peptides | – | –
2 | Cc1ccccc1Nc1nnc(-c2ccc(C)c(S(N)(=O)=O)c2)c2ccccc12 [S9] | only blocked GAD.492 and Tg.1571 binding | – | –
3 | COc1ccc(Nc2nnc(-c3ccc(C)c(S(N)(=O)=O)c3)c3ccccc23)cc1C(N)=O [S15] | significant inhibition of binding for all 3 peptides | 30.1 | –
4 | GAD.492: glutamic acid decarboxylase 65 (GAD65) peptide REGYEMVFDGKPQHTNVCF (SEQ ID NO: 2) (GAD.492) | – | – | 99.6
5 | TPO.758: thyroid peroxidase (TPO) peptide ESGRRVLVYSCRHGYELQG (SEQ ID NO: 3) (TPO.758) | – | – | 717
6 | Tg.1571: thyroglobulin (Tg) peptide EKVPESKVIFDANAPVAVRSKVPDSEF (SEQ ID NO: 1) (Tg.1571) | – | – | 24.2
